Test results: patent publication US7317038B2, “Nerve regeneration promoters containing semaphorin inhibitor as the active ingredient” (Dainippon Sumitomo Pharma Co., Ltd., priority 2000, dated 2008)
“Also recorded” adds a separate entry of the source.

Experiments:
[1] = biological target: T1, mouse semaphorin 3A (Sema3A) (Mus musculus, UniProt O08665); test: Suppression of growth cone collapse activity of Sema3A (chick embryo dorsal root ganglions); type: cell-based; conditions: for inhibition of growth cone collapse activity of Sema3A (in words): chick embryo dorsal root ganglions; for IC50: E7 chick embryo dorsal root ganglions, 2 units/ml Sema3A added 1 hour after compound, concentration where collapse rate = (A+B)/2, read-out: IC50 of inhibition of the growth cone collapse activity of Sema3A (converted)
T1 sequence (O08665 21-772): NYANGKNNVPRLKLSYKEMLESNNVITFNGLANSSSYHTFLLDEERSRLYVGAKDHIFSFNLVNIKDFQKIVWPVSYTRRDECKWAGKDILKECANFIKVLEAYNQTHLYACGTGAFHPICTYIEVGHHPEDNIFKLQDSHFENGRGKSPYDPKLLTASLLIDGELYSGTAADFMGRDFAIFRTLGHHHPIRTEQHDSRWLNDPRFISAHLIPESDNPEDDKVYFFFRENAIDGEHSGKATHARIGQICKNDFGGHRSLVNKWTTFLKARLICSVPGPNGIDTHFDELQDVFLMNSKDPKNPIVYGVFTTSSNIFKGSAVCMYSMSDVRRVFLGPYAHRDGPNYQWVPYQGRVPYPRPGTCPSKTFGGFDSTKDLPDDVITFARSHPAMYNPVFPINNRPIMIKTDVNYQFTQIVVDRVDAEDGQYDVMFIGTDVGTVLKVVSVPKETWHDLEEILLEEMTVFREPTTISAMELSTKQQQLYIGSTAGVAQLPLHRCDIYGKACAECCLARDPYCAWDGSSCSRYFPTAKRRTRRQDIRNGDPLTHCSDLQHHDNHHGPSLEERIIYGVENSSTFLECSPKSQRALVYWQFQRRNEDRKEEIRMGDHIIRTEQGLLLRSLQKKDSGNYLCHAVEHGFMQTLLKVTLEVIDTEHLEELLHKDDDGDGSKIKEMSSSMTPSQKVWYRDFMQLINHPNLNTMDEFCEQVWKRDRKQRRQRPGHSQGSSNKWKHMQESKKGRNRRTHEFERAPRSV
Experimental: A 96-well plate (Sumitomo Bakelite Co., ltd. ) pre-coated with polylysine was further coated with laminine (20 μg/ml of laminine, for 1 hour at room temperature). Each well was added with 100 μl of medium (F12 medium containing 10% bovine fetal serum, 20 ng/ml of NGF, 100 units/ml of penicillin and 100 μg/ml of streptomycin) which media were then inoculated with dorsal root nerve ganglions excised from E7 (Embryonic day 7) chick embryo and were cultured for 16 to 20 hours under 5% CO2 and at 37° C. Subsequently, the object compounds were added to media at various concentrations and 2 units/ml of mouse semaphorin 3A (Sema3A) was added after cultivating for 1 hour. The cultures were further incubated for another 1 hour. Glutaraldehyde was quickly added therein after said 1 hour to make the final concentration 1%. The cultures were then left for 15 minutes at room temperature so that the tissue sections were fixed, and collapse rates of the growth cones were microscopically observed. A well with no addition of Sema3A was made the control.
The longitudinal and lateral axes in the figures represent the collapse rate of growth cones and the concentration of compounds, respectively. ●▪▴ show the results when Sema3A was added after the addition of the compounds and ◯[…]Δ show those when Sema3A was not added. Further, IC50 (μg/ml) of the inhibitors were determined by the method comprising: calculating the collapse rate of growth cone (A) % of the negative controls (neither compounds nor Sema3a was added); subsequently calculate the collapse rate of growth cone (B) % of the positive controls (compounds were not added but Sema3a was added); and the concentration was chosen for each compound from the chart where the collapse rate of growth cone met (A+B)/2(%), which was made IC50 level. The followings are the results.

[2] = biological target: T2, Sema3A (Mus musculus, UniProt O08665); test: Collagen gel co-culture: suppression of neurite outgrowth inhibitory action of Sema3A; type: cell-based; set-up: key to suppression of neurite outgrowth inhibitory activity of Sema3A, score / inhibition of neurite outgrowth-inhibitory action of Sema3A, score: neurites outgrew in a complete concentric circular shape just like for the control groups where Sema3A-non-expressing COS7 cells were used, it was scored +++ (a strong inhibitory effect for Sema3A); outgrowth was found almost in a concentric circular shape accompanied with a little suppression of the outgrowth toward the direction of Sema3A-expressing COS cells, it was scored ++; outgrowth toward the direction of Sema3A-expressing COS cells is fairly suppressed to present a crescent shape, it was scored +; outgrowth toward the direction of Sema3A-expressing COS cells was not found at all (no inhibitory effect for Sema3A), it was scored −; conditions: for suppression of neurite outgrowth inhibitory activity of Sema3A, score: Example 5; for inhibition of neurite outgrowth-inhibitory action of Sema3A, score: 2 μg/ml compound, Example 16; for persistent inhibitory action to Sema3A (neurite outgrowth toward Sema3A-expressing COS7 cell clump): collagen gel co-culture, 2 days
T2 construct: expressed in transfected cells; host or cells: COS7
T2 sequence (O08665 21-772): T1 sequence (O08665 21-772)
Experimental: Whether the object compounds (SPF-3059-1, M162, A721) have persistent inhibitory action to Sema3A was analyzed by the collagen gel co-culture method (Neuroprotocols 4, 116, 1994) using Sema3A-expressing COS7 cell clumps and 7- or 8-day-old chick embryo dorsal root ganglions. The Sema3A-expressing COS7 cell clumps were generated as follows. 1 μg of Sema3A-expression plasmid was introduced into COS7 cells (100000 cells/35 mm culture plate), which were cultured overnight, with the FuGENE6 transfection reagent (Roche). 2.5 hours after the starting of the transfection, the COS7 cells were collected by trypsinization and centrifugation, and re-suspended in a medium of 200 μl. 20 μl of the cell suspension was placed on the lid of the culture plate (inside) and the lid was turned over, and then the suspension was cultivated for 20 hours (hanging drop culture) (Cell 78, 425, 1994). When the culture was over, aggregated COS7 cells (clump) were collected and trimmed to a diameter of 0.5 mm. The Sema3A-expressing COS7 cell clump and the above-mentioned dorsal root ganglions were placed in parallel at a distance of 0.5 to 1 mm in a 0.2% collagen gel which was then cultivated in a medium containing the aforementioned compounds at various concentrations for 2 days at 37° C. under 5% CO2. Glutaraldehyde was quickly added therein to make the final concentration 1%. The cultures were then left for 1 hour at room temperature so that the tissues were fixed, and the neurite outgrowth was microscopically observed. The results are found in FIG. 4.
When a medium not containing a subject compound was used, neurites were unable to grow towards the COS7 cell clump with the high concentration of Sema3A and grew only to the opposite direction.
In a similar way as in Example 4, suppression of the neurite outgrowth inhibitory activity was analyzed for the compounds, SPF-3059-1, SPF-3059-2 and SPF-3059-5. When the neurites outgrew in a complete concentric circular shape just like for the control groups where Sema3A-non-expressing COS7 cells were used, it was scored +++ (a strong inhibitory effect for Sema3A). When the outgrowth was found almost in a concentric circular shape accompanied with a little suppression of the outgrowth toward the direction of Sema3A-expressing COS cells, it was scored ++. […] When the outgrowth toward the direction of Sema3A-expressing COS cells was not found at all (no inhibitory effect for Sema3A), it was scored −.

[3] = system: COS7 cells; test: Effect on cell proliferation (MTT); type: cell-based; conditions: Chlorocebus aethiops, COS-7, 48 h, two days, read-out: IC50, inhibitory rate for cell proliferation
Experimental: COS7 cells were seeded onto a 96-well plate (medium 100 μl/well) at 10000 cells per well. At the same time, SPF-3059-1 of various concentrations was added and the cells were cultivated for two days in the presence of 5% CO2 at 37° C. Each well was then added with 10 μl of MTT solution at 5 mg/ml and cultured for another one hour. Subsequently, the culture supernatant was removed and formazan (an MTT derivative produced in viable cells) accumulated in the cells was dissolved by the addition of 50 μl DMSO and then the absorbance at 570 nm was measured to determine the proliferation of COS7 cells. […] The longitudinal and lateral axes in the figure show cell proliferation and the SPF-3059-1 concentration, respectively. Besides, the standard deviation (n=4) was added to each column.
The same effect on cell proliferation as in Example 9 was examined for the compounds, SPF-3059-1, SPF-3059-2 and SPF-3059-5. The wells with these compounds were served as samples, the wells with PBS were served as control, and the wells for which the experiment was carried out without adding the cells was served as blank. IC50 (μg/ml), the inhibitory rate for cell proliferation, was determined, which is calculated by the equation shown below. The inhibitory rate for cell proliferation (%)=(1−(absorbance of a sample well−absorbance of the blank well)/(absorbance of the control well−absorbance of the blank well))×100

[4] = Solubility; type: physicochemical

Row | suppression of neurite outgrowth inhibitory activity of Sema3A, score ([2]; 0.5 μg/ml compound) | suppression of neurite outgrowth inhibitory activity of Sema3A, score ([2]; 1.0 μg/ml compound) | suppression of neurite outgrowth inhibitory activity of Sema3A, score ([2]; 2.0 μg/ml compound) | inhibition of neurite outgrowth-inhibitory action of Sema3A, score [2] | IC50 [1] | Solubility ([4]; methanol, DMSO) | Solubility ([4]; water, hexane) | Compound | inhibition of growth cone collapse activity of Sema3A (in words) [1] | persistent inhibitory action to Sema3A (neurite outgrowth toward Sema3A-expressing COS7 cell clump) [2] | IC50 [3]
1 | + | ++ | +++ | +++ | – | – | – | CC(=O)c1cc2c(=O)c3cc(O)c(O)cc3oc2c(C(C)=O)c1-c1coc2cc(O)c(O)c(C(=O)O)c2c1=O [SPF-3059-2] | inhibit the growth cone collapse activities of Sema3A in a concentration-dependent manner; also recorded: potently inhibit semaphorin | persistently inhibited the action of Sema3A | > 100 µg/mL
2 | + | ++ | ++ | ++ | < 173 nM | – | – | CC(=O)c1cc2c(=O)c3c(C(=O)O)c(O)c(O)cc3oc2c(C(C)=O)c1-c1coc2cc(O)c(O)c(C(=O)O)c2c1=O [SPF-3059-5] | inhibit the growth cone collapse activities of Sema3A in a concentration-dependent manner; also recorded: potently inhibit semaphorin | persistently inhibited the action of Sema3A | > 300 µg/mL
3 | – | – | – | – | 187 nM | Soluble | Insoluble | CC(=O)c1c(C)c(C(=O)C2COc3cc(O)c(O)cc3C2=O)cc2c(=O)c3c(C(=O)O)c(O)c(O)cc3oc12 (stereo not shown) [SPF-3059-9] | – | – | > 100 µg/mL
4 | – | – | – | – | 188 nM | Soluble | Insoluble | CC(=O)c1cc2c(=O)c3c(C(=O)O)c(O)c(O)cc3oc2c(C(C)=O)c1-c1coc2cc(O)c(O)cc2c1=O [SPF-3059-24] | – | – | > 100 µg/mL
5 | – | – | – | – | 7750 nM | Soluble | Insoluble | CC(=O)c1cc2c(=O)c3c(C(=O)O)cc(O)cc3oc2c(C(C)=O)c1-c1coc2cc(O)c(O)cc2c1=O [SPF-3059-25] | – | – | –
6 | – | – | – | – | 409 nM | Soluble | Insoluble | CC(=O)c1cc2c(=O)c3cc(O)c(O)cc3oc2c(C(C)=O)c1-c1coc2cc(O)c(O)cc2c1=O [SPF-3059-26] | – | – | –
7 | – | – | – | – | 778 nM | Soluble | Insoluble | CC(=O)c1cc(-c2c(C(C)=O)cc3c(=O)c4c(C(=O)O)c(O)c(O)cc4oc3c2C(C)=O)cc(C(=O)c2cc(O)c(O)cc2O)c1O [SPF-3059-27] | – | – | –
8 | – | – | – | – | 3760 nM | Soluble | Insoluble | CC(=O)c1c(C)c(-c2cc(=O)c3c(C(=O)O)cc(O)cc3o2)cc2c(=O)c3c(C(=O)O)c(O)c(O)cc3oc12 [SPF-3059-28] | – | – | –
9 | – | – | – | – | 182 nM | Soluble | Insoluble | COCc1c(-c2cc3c(=O)c4cc(O)c(O)cc4oc3c(C(C)=O)c2C)oc2cc(O)c(O)c(C(=O)O)c2c1=O [SPF-3059-29] | – | – | > 100 µg/mL
10 | – | – | – | – | 408 nM | Soluble | Insoluble | CC(=O)c1c(C)c(C(=O)C2COc3cc(O)c(O)cc3C2=O)cc2c(=O)c3cc(O)c(O)cc3oc12 (stereo not shown) [SPF-3059-30] | – | – | > 100 µg/mL
11 | – | – | – | – | 182 nM | Soluble | Insoluble | CC(=O)c1c(C)c(C(=O)C2(O)COc3cc(O)c(O)cc3C2=O)cc2c(=O)c3c(C(=O)O)c(O)c(O)cc3oc12 (stereo not shown) [SPF-3059-34] | – | – | –
12 | – | – | – | – | 3660 nM | Soluble | Insoluble | COC(=O)c1cc(O)cc2oc(-c3cc4c(=O)c5c(C(=O)O)c(O)c(O)cc5oc4c(C(C)=O)c3C)cc(=O)c12 [SPF-3059-35] | – | – | –
13 | – | – | – | – | 6680 nM | Soluble | Insoluble | CC(=O)c1cc(-c2c(C(C)=O)cc3c(=O)c4cc(O)c(O)cc4oc3c2C(C)=O)cc(C(=O)c2cc(O)c(O)cc2O)c1O [SPF-3059-36] | – | – | –
14 | – | – | – | – | < 124 nM | Soluble | Insoluble | CC(=O)c1c(C)c(-c2oc3cc(O)c(O)c(C(=O)O)c3c(=O)c2Cc2c(C)oc3c(c2=O)COc2cc(O)c(O)cc2-3)cc2c(=O)c3c(C(=O)O)c(O)c(O)cc3oc12 [SPF-3059-37] | – | – | –
15 | – | – | – | – | 182 nM | Soluble | Insoluble | CC(=O)c1c(C)c(-c2cc(=O)c3c(C(=O)O)c(O)c(O)cc3o2)cc2c(=O)c3c(C(=O)O)c(O)c(O)cc3oc12 [SPF-3059-39] | – | – | –
